Laboratory results: PMC4937658, “Effects of dalfampridine and its metabolites on cloned human potassium channels Kv 1.1, Kv 1.2, and Kv 1.4 expressed in human embryonic kidney cells” (Journal of Drug Assessment, 2013)
Where a name gives a salt, the structure may show the parent alone.

Columns and labels:
Test in all cases: automated whole-cell patch clamp (PatchXpress), peak current
Format in all cases: cell-based
Kv 1.2 = target: T1, Kv 1.2 (Homo sapiens, UniProt P16389)
T1 construct: gene KCNA2; cDNA stably transfected in HEK293 cells; expressed alone (homotetramer)
T1 sequence (P16389 whole entry): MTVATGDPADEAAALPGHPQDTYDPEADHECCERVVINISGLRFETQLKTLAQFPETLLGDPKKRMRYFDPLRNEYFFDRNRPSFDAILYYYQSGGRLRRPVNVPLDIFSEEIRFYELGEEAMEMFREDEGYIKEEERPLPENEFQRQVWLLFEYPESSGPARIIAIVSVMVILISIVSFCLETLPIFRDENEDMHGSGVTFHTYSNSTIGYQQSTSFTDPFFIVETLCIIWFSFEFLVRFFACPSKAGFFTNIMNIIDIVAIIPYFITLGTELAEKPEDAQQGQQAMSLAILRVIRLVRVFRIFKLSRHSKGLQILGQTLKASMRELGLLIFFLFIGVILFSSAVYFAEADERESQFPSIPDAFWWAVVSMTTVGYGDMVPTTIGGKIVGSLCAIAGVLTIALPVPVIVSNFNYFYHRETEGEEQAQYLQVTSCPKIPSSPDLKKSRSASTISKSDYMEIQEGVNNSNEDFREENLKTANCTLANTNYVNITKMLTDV
Description: automated whole-cell patch clamp (PatchXpress), peak current on Kv 1.2

Kv 1.4 = target: T2, Kv 1.4 (Homo sapiens, UniProt P22459)
T2 construct: gene KCNA4; cDNA stably transfected in HEK293 cells; expressed alone (homotetramer)
T2 sequence (P22459 whole entry): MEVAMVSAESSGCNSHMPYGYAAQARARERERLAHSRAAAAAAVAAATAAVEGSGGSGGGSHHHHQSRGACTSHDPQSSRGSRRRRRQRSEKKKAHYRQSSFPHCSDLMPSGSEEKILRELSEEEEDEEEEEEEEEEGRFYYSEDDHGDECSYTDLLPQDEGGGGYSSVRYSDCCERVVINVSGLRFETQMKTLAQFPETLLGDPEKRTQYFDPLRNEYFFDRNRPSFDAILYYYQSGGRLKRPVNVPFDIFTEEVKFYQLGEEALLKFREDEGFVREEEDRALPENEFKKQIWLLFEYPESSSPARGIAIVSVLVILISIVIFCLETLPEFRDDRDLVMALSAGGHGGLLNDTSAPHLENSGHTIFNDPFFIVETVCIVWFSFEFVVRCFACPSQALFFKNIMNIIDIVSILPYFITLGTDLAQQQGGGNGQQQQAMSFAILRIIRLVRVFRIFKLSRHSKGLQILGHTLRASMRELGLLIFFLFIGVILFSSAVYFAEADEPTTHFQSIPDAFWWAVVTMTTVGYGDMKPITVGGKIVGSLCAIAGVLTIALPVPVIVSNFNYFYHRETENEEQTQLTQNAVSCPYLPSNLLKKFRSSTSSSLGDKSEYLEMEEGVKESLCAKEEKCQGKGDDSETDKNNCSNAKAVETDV
Description: automated whole-cell patch clamp (PatchXpress), peak current on Kv 1.4

Kv 1.1 = target: T3, Kv 1.1 (Homo sapiens, UniProt Q09470)
T3 construct: gene KCNA1; cDNA stably transfected in HEK293 cells; expressed alone (homotetramer)
T3 sequence (Q09470 whole entry): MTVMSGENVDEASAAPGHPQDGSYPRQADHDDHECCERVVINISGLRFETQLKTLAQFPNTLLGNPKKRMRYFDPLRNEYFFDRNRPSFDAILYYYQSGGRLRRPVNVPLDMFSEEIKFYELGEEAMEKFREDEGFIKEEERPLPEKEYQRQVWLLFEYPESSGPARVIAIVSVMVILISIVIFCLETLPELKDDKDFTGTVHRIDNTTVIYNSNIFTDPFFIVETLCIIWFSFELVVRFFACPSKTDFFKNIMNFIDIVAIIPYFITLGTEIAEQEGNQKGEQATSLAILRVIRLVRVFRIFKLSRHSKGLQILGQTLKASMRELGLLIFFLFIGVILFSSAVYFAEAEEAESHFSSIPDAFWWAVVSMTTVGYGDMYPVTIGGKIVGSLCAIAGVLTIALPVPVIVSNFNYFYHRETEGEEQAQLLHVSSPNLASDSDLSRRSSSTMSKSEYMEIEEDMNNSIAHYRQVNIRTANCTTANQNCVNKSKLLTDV
Description: automated whole-cell patch clamp (PatchXpress), peak current on Kv 1.1

SMILES	IC50 (Kv 1.2) [µM]	IC50 (Kv 1.4) [µM]	IC50 (Kv 1.1) [µM]
Nc1ccncc1OS(=O)(=O)O [3-hydroxy-4-aminopyridine sulfate]	21400	> 50000	30300
Nc1ccncc1O [3-hydroxy-4-aminopyridine]	23700	23200	7890
